# Assay results from the supplement of paper PMC10883282.
# ± gives the standard deviation of the averaged measurements.
# Test system: SYO-1
# Assay: relative viability vs DMSO control (72 h) (fraction); higher = more viable cells
# In short: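 Serially diluted compound, 2.5 µl from source plates spanning 10 mM to 0.0002 mM, was added 24 h after sarcoma cell lines were seeded in 384-well plates at densities targeting 80–90% confluence. Plates then sat 72 h at 37 °C, 5% CO2, with 0.1% DMSO vehicle and a 5 µM positive control. Relative viability came from ATPLite as percent growth, averaged over up to triplicate wells, and was rescaled with 1 as full and 0 as none.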
SMILES,relative viability (0.00017 µM),relative viability (0.00051 µM),relative viability (0.00152 µM),relative viability (0.00457 µM),relative viability (0.01372 µM),relative viability (0.04115 µM),relative viability (0.1235 µM),relative viability (0.3704 µM),relative viability (1.111 µM),relative viability (3.333 µM),relative viability (10 µM)
COc1cc2nccc(Oc3ccc(NC(=O)Nc4cc(C)on4)c(Cl)c3)c2cc1OC [Tivozanib],0.97 ± 0.049,0.952 ± 0.04,0.935 ± 0.051,0.941 ± 0.023,0.887 ± 0.051,0.796 ± 0.053,0.765 ± 0.02,0.706 ± 0.03,0.618 ± 0.065,0.523 ± 0.025,0.393 ± 0.027
C[C@]1(O)C[C@@H](c2nc(-c3ccc4ccc(-c5ccccc5)nc4c3)c3c(N)nccn32)C1 [Linsitinib],1.01 ± 0.043,1.01 ± 0.013,0.97 ± 0.046,0.969 ± 0.018,0.922 ± 0.035,0.87 ± 0.083,0.857 ± 0.035,0.823 ± 0.012,0.833 ± 0.04,0.734 ± 0.025,0.57 ± 0.028
C=CC(=O)Nc1cccc(Oc2nc(Nc3ccc(N4CCN(C)CC4)cc3)nc3ccsc23)c1 [Olmutinib],0.957 ± 0.02,0.985 ± 0.043,0.955 ± 0.018,0.952 ± 0.01,0.953 ± 0.021,0.9712 ± 0.0081,0.972 ± 0.037,0.933 ± 0.017,0.908 ± 0.045,0.698 ± 0.044,-0.00933 ± 0.0049
O=C(Nc1cnn2ccc(N3CCC[C@@H]3c3cc(F)ccc3F)nc12)N1CC[C@H](O)C1 [Larotrectinib],1.034 ± 0.0067,1.02 ± 0.021,0.979 ± 0.016,0.973 ± 0.047,0.946 ± 0.06,0.948 ± 0.063,0.926 ± 0.075,0.937 ± 0.043,0.885 ± 0.058,0.903 ± 0.062,0.875 ± 0.055
